# Values of other authors in patent publication US9303066B2 (priority 2011, dated 2016).
# Positions of bridges follow the written chain, without caps; N, C: chain ends. Residues, ends and D or L forms follow the SMILES beside them. No end group written: not given here.
# Assays:
# [1] = target: T1, GC-C (Homo sapiens, UniProt P25092); parameters: from tissue; host or cells: intestinal epithelium (luminal surface) in vivo; settings: in vivo, po
# [2] = in vivo, po
# [3] = 37° C.
# [4] = target: T1, GC-C; settings: cultured GC-C-expressing cells
# T1 sequence (P25092 24-1073, species assumed): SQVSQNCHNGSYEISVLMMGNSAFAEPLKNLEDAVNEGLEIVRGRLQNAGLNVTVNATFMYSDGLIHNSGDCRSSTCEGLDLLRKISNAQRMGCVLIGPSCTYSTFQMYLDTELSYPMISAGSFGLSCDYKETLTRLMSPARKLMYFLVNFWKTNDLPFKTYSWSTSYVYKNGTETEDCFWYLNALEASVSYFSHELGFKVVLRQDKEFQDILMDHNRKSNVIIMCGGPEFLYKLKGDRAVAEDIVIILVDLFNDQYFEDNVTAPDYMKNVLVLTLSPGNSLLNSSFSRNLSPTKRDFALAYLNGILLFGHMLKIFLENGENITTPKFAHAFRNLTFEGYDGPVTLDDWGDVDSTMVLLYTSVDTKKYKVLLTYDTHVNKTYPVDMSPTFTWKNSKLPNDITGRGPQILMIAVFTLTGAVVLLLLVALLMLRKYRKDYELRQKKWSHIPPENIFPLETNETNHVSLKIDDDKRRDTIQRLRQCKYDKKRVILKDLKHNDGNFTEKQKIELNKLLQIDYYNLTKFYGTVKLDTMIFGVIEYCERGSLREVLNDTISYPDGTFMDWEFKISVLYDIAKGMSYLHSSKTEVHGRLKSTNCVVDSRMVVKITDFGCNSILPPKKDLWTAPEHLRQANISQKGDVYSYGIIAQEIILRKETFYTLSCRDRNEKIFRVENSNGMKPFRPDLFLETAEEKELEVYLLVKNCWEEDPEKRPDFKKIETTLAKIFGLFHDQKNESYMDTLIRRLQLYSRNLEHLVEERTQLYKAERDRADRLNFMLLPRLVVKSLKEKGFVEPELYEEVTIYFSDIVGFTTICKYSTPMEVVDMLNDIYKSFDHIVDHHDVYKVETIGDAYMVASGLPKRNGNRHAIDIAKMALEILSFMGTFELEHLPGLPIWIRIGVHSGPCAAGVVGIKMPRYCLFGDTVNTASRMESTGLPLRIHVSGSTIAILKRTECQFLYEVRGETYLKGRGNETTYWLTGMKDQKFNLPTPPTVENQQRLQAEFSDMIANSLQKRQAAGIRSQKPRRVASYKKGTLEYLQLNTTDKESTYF
compound,measurement,setting,value
"C[C@@H]1NC(=O)[C@@H]2CCCN2C(=O)[C@H](CC(N)=O)NC(=O)[C@@H]2CSSC[C@H](N)C(=O)N[C@H]3CSSC[C@H](NC1=O)C(=O)N[C@@H]([C@@H](C)O)C(=O)NCC(=O)N[C@H](C(=O)N[C@@H](Cc1ccc(O)cc1)C(=O)O)CSSC[C@H](NC(=O)[C@H](Cc1ccc(O)cc1)NC(=O)[C@H](CCC(=O)O)NC3=O)C(=O)N2 [Linaclotide] (H-CCEYCCNPACTGCY-OH; disulfide 1-6, 2-10, 5-13)",GI transit,[1],increased GI transit
same,bloating,[1],reduced bloating
same,visceral pain,[1],reduced visceral pain
same,levels seen systemically,[2],no detectable levels
NDDCELCVNVACTGCL (cysteine pairing not given here) [human Ugn],half-life of each form (A and B conformation),[3],about 2 days
"UgnB: B conformational stereoisomer of human uroguanylin, separated by HPLC (NDDCELCVNVACTGCL; disulfide 4-12, 7-15; also: B conformational stereoisomer (HPLC-separated); UniProt Q16661 97-112, looked up)",fold less potent than UgnA,[4],more than 100 fold
